Experimental data reported in US20230219898A1, “COMPOUNDS AND METHODS FOR BLOCKING APOPTOSIS AND INDUCING AUTOPHAGY” (President and Fellows of Harvard College, priority 2020, published 2023).
Read-outs that look alike come from different tables or passages of the source.

What was measured:
MEFs = experiment: Necroptosis of MEFs induced by TNFα/5z7/zVAD; assay type: cell-based, mouse; conditions: 10 μM
Experimental: The concentrations of reagents used: mTNFα: 1 ng/mL; (5Z)-7-oxozeaenol: 0.5 μM; zVAD: 20 μM; ICCB-19: 10 μM; Apt-1: 10 μM; Nec-1s: 10 μM. Mean s.d. from technical triplicates (n=3), representative of 3 independent experiments.

[1] = tested on: cleaved caspase-3 in Jurkat cells; experiment: Cleaved caspase-3 immunoblot in Velcade-treated cells; assay type: cell-based, human; conditions: FIG. 9a, 9b; Jurkat and SH-SY5Y cells, 10 μM, 12 h and 24 h
Experimental: The levels of cleaved caspase-3 were determined by immunoblotting.
Specifically, wild-type MEF cells were pretreated for 1 h with 10 uM of the specified compounds, followed by 2 h treatment with 0.5 uM 5z-7-oxozeaenol and 1 ng/mL TNFα. Cell lysates were prepared and immunoblotted for cleaved-caspase 3 (CC3). Wild-type Jurkat cells were also pretreated for 1 h with 10 uM of the specified compounds, followed by 12 h treatment with 50 nM Velcade. Cell lysates were prepared and immunoblotted for cleaved-caspase 3 (CC3).

[2] = tested on: Beclin 1/Vps34 kinase complex; experiment: Vps34 lipid kinase assay on Beclin 1/Vps34 complex from treated HEK293T cells; assay type: cell-based; conditions: 10 μM, 6 h
Experimental: FIG. 6j Beclin 1/Vps34 kinase complex isolated from Flag-Beclin 1 transfected HEK293T cells treated with ICCB-19, Apt-1, or ICCB-19i (10 μM) for 6 h. PI3P kinase activity was measured by in vitro lipid kinase assay using ADP-Glo Kinase Assay Kit. Wortmannin (10 μM) was used as a control to inhibit Vps34 kinase activity. Mean±s.d. from technical quadruplicates (n=4), representative of 3 independent experiments. One-way ANOVA, post hoc Dunnett's tests. ***P=0.0003; ***P<0.001 (left to right).
WT mice (n=10, male, 8 weeks of age) were injected intravenously via the tail vein with mTNFα (9.5 μg/mouse) after an intraperitoneal injection of Apt-1 (20 mg/kg) 30 min before. Control mice (n=9) received an equal amount of vehicle 30 min before mTNFα challenge. Kaplan Meier survival curve was determined. 25. Vps34 lipid kinase assay HEK293T cells were transfected with Flag-Beclin 1 for 18 h and then treated with ICCB-19, ICCB-19i, Apt-1 (10 μM) for another 6 h. Flag-Beclin 1 was immunoprecipitated by anti-Flag to isolate Beclin 1/Vps34 complex. Immunoprecipitated beads were added with sonicated phosphatidylinositol (1 μl of 5 mg) and ATP (1 μl of 10 mM) in 30 μl reaction buffer (40 mM Tris (pH 7.5), 20 mM MgCl2, 1 mg/ml BSA) for 30 min at room temperature. […] The conversion of ATP into ADP levels was measured by an ADP-Glo Kinase Assay Kit (Promega) according to the manufacturer's instructions.

H4-GFP-LC3 cells = experiment: Autophagy induction, GFP-LC3 puncta and LC3II immunoblotting; assay type: cell-based; conditions: 10 μM, 6 h (zVAD.fmk 20 μM)
Experimental: Mean ±s.e.m. (n=5). One-way ANOVA, post hoc Dunnett's test.
Autophagy was determined by LC3II levels using immunoblotting. SE=shorter exposure, LE=longer exposure.
Autophagy was measured by LC3II induction and p62 reduction by immunoblotting. The levels of LC3II in cells treated with both Apt-1 and NH4Cl, the latter of which inhibits lysosome, were higher than that treated with either Apt-1 or NH4Cl alone. Thus, ICCB-19/Apt-1, but not ICCB-19i, induce autophagic flux. Mean ±s.e.m. from technical triplicates (n=3), representative of 3 independent experiments. Two-tailed t-test. **P=0.0037.
Levels of LC3II determined by immunoblotting.
Cells were seeded at 2.5×10^4 cells per well on poly-L-lysine coated glass cover slips and transfected as described. Cells were fixed in 4% paraformaldehyde, followed by permeabilization with 0.1% Triton X-100. Nuclei were stained using DAPI (Sigma). Cells expressing GFP or RFP-fusion proteins were imaged with an Olympus Fluoview FV1000 confocal microscope (Olympus) using a 40×objective. For GFP-LC3 and DsRed-FYVE puncta quantification, the average spot intensity in 1000 cells from each indicated sample was determined. Images were processed using ImageJ and Photoshop CC. Concentration of compounds used to induce or block autophagy: 10 μM (Apt-1, ICCB-19, ICCB-19i or Spautin-1), for 6 h or as indicated.

mTOR = mTOR signalling immunoblotting in MEFs; assay type: cell-based, mouse; conditions: 10 μM
Excerpt: Cell lysates analyzed by immunoblotting using indicated antibodies.

Murine RGC5(661W) cells = experiment: RIPK1-dependent apoptosis (RDA) of RGC5 cells induced by TNFα plus 5Z-7-Oxozeaenol; assay type: cell-based; conditions: Mus musculus, 21 hours
Experimental: Murine RGC5(661W) cells were seeded in 96-well plates (4000 cells per well). Different concentrations of the compounds were added one hour prior to TNFα treatment, followed by the addition of 0.5 ng/ml TNFα plus 0.5 μM 5Z-7-Oxozeaenol to induce RIPK1-dependent apoptosis (RDA). After incubation for 21 hours, cell viability was measured by CellTiter-Glo Luminescent Cell Viability Assay.

GST-TRADD-C = target: T1, GST-TRADD-C (Homo sapiens, UniProt Q15628); experiment: Thermal shift assay with GST-TRADD-C; assay type: binding; conditions: GST-TRADD-C 50 μM, compound 250 μM
T1 construct: cDNA encoding GST-tagged hTRADD (Full length or aa180-312); made in house; host or cells: mammalian cells (pEBG plasmid)
T1 sequence (Q15628 180-312): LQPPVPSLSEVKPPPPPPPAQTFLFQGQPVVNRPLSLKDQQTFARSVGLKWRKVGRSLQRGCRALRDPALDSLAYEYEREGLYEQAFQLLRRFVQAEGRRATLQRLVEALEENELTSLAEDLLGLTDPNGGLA
Experimental: To determine stability, purified proteins were made to a final concentration of […]. SYPRO Orange dye was added to the protein to make a final concentration of 2×. Compounds were added in the mix with a final concentration of 250 μM or as indicated and incubated at 4C for 1 h. The experiments were performed in 384-well plates specific for real-time PCR instrument with a total volume of 20 μl/well. The assay plate was covered with a sheet of optically clear adhesive to seal each well. The assay plate was centrifuged at 800×g for 2 min at 25C to collect solutions in the bottom of the well and remove bubbles. The assay plate was placed into the Applied Biosystems QuantStudio 6 Real-Time PCR System. The reaction was run from 25C, ramping up in increments of 0.05° C./s to a final temperature of 95C with fluorescence detection throughout the experiment to generate a dataset. Melting temperature of the protein (Tm) was determined by performing non-linear fitting of the dataset to a Boltzmann Sigmoidal curve in GraphPad Prism with the following equation: Y=Bottom+(Top-Bottom)/[1+exp(Tm-X/Slope)], where Y=fluorescence emission in arbitrary units; X=temperature; Bottom=baseline fluorescence at low temperature; Top=maximal fluorescence at top of the dataset; Slope=describes the steepness of the curve, with larger values denoting shallower curves.

[3] = Table 3, 0.5 ng/ml TNFα plus 0.5 μM 5Z-7-Oxozeaenol, read-out: RGC5 T/5z7 IC50/μM

| Compound | inhibition of necroptosis (MEFs) | cleavage of caspase-3 downstream of Velcade-induced proteasomal stress [1] | Vps34 lipid kinase activity [2] | induction of autophagy (H4-GFP-LC3 cells) | effect on mTOR (mTOR) | IC50 (Murine RGC5(661W) cells; [3]) [µM] | binding to GST-TRADD-C (GST-TRADD-C) | IC50 (Murine RGC5(661W) cells; Table 2, 0.5 ng/ml TNFα plus 0.5 μM 5Z-7-Oxozeaenol, read-out: RGC5 T/5z7 IC50) [µM] |
| --- | --- | --- | --- | --- | --- | --- | --- | --- |
| CN1CCN=C1SC(C(=O)NC1CCCCCC1)c1ccccc1 (stereo not drawn) [Compound 30] | partially inhibited | blocked | increased Vps34 lipid kinase activity | effectively induced autophagy | no effect on mTOR | 1.28 | does not bind |  |
| O=C(CSC1=NCCN1)NC1CCCCCC1 [ICCB-19] | partially inhibited | blocked | increased Vps34 lipid kinase activity | effectively induced autophagy | no effect on mTOR | 2.01 | does not bind | 0.18 |
